# Results published in article PMC6151709, “Immobilization of Moniliella spathulata R25L270 Lipase on Ionic, Hydrophobic and Covalent Supports: Functional Properties and Hydrolysis of Sardine Oil” (Molecules : A Journal of Synthetic Chemistry and Natural …, 2017).
# Test system: T1, M. spathulata R25L270 lipase
# T1 construct: native secreted enzyme; crude culture supernatant (Macauba cake medium), not purified here; free enzyme
# Experiment: spectrophotometric release of p-nitrophenol at […] nm
# Assay type: biochemical, Moniliella spathulata
# Conditions: free enzyme, crude culture supernatant; pH 8.0, 37 °C; pNPP 0.1-1 mM; Triton X-100, gum arabic, 2-propanol in the substrate solution; read-out: Michaelis Constant KM
smiles,measurement,value
CCCCCCCCCCCCCCCC(=O)Oc1ccc([N+](=O)[O-])cc1 [p-nitrophenylpalmitate],Km,1920 µM
